EPA's ToxValDB 9.5 (doi:10.2903/j.efsa.2008.146r)

Experiments:
[1] = test system: Apis mellifera; conditions: acute, mortality
[2] = test system: Canidae; conditions: oral, Dog Other, clinical signs
[3] = test system: Colinus virginianus; conditions: acute, oral, mortality
[4] = test system: Coturnix japonica; conditions: reproduction developmental
[5] = test system: Daphnia magna; conditions: chronic/long-term; duration: 21 days; reproduction
[6] = test system: Oncorhynchus mykiss
[7] = test system: Rattus norvegicus
[8] = test system: Tagia sp.; conditions: acute; duration: 14 days; mortality
[9] = test system: Aphidius rhopalosiphi; experiment: LR50; higher = less toxic; conditions: acute; duration: 48 hours; mortality
[10] = test system: Typhlodromus pyri; experiment: LR50; higher = less toxic; conditions: acute; duration: 14 days; mortality

C[N+]1(C)CCCCC1.[Cl-] [1,1-Dimethylpiperidinium chloride]
LD50 ([1]; dermal): > 100 µg/piece | LD50 ([1]; oral, unspecified): > 107 µg/piece | NOAEL ([2]; chronic, duration: 12 months): 19.9 mg/kg-day | NOAEL ([2]; subchronic, duration: 3 months): 30.5 mg/kg-day | LD50 ([3]; diet): > 1330 mg/kg-day | LD50 [3]: > 2000 mg/kg-day | NOEC [4]: 933 mg/kg-day | NOEC [5]: 12.5 mg/L | LC50 ([6]; acute, duration: 96 hours, mortality): > 100 µg/mL | NOEC ([6]; chronic/long-term, duration: 28 days, growth): 100 mg/L | LD50 ([7]; acute, oral, mortality): 200 mg/kg-day | NOAEC ([7]; reproduction developmental): 155 mg/kg-day | NOAEL ([7]; reproduction developmental, mortality): 30 mg/kg-day | LC50 [8]: 320 mg/kg | LR50 [9]: 1370 g/ha | LR50 [10]: 1530 g/ha
